Data as given in patent US11021457B2, “Class of isoindolone-imide ring-1,3-dione-2-ene compounds, composition and use thereof” (WIGEN BIOMEDICINE TECHNOLOGY (SHANGHAI) CO., LTD., priority 2017, dated 2021).

How the values were obtained:
Assay type in all cases: cell-based
[1] = test system: BxPC-3; assay: Inhibition of tumor cell proliferation, CellTiter-Glo, BxPC-3; conditions: compound concentration 50 μM, 72 hours; for cell survival rate (%) at 50 µM: Homo sapiens, BXPC-3, read-out: Inhibitory activity against proliferation (cell survival rate) BxPC-3
Experimental: (§1) For various cell lines, the corresponding complete medium was used, and culture was carried out in an incubator at 37° C. with 5% CO2. The cells were counted, and inoculated into a 96-well plate at 2000-10000 cells/100 μl per well according to the cell volume and growth rate. The suspended cells were treated immediately, and the adherent cells were treated after adherence. The CellTiter-Glo method was used to detect the changes in cell viability 72 hours after the administration, and the cell survival rate at different concentrations was calculated by a formula: Survival rate (%)=(RLU of treatment well−RLU of blank well)/(RLU of control well−RLU of blank well)×100.
(§2) Method for expressing the inhibitory activity of the compounds against the proliferation of tumor cells: Evaluation was made based on the cell survival rate at a compound concentration of 50 μM. 60≤survival rate (%)<90 is considered to have low inhibitory activity against the proliferation of tumor cells (+); 30<survival rate (%)≤60 is considered to have moderate inhibitory activity against the proliferation of tumor cells (++); and survival rate (%)≤30 is considered to have high inhibitory activity against the proliferation of tumor cells (+++).

[2] = test system: A549; assay: Inhibition of tumor cell proliferation, CellTiter-Glo, A549; conditions: compound concentration 50 μM, 72 hours; for cell survival rate (% of control) at 50 µM: Homo sapiens, A549, read-out: Inhibitory activity against proliferation (cell survival rate) A549
Experimental: as §1, §2

[3] = test system: MDA-MB-453; assay: Inhibition of tumor cell proliferation, CellTiter-Glo, MDA-MB-453; conditions: compound concentration 50 μM, 72 hours; for cell survival rate (%) at 50 µM: Homo sapiens, MDA-MB-453, read-out: Inhibitory activity against proliferation (cell survival rate) MDA-MB-453
Experimental: as §1, §2

[4] = test system: SU-DHL6; assay: Inhibition of tumor cell proliferation, CellTiter-Glo, SU-DHL6; conditions: compound concentration 50 μM, 72 hours; for cell survival rate (% of control) at 50 µM: Homo sapiens, SU-DHL-6, read-out: Inhibitory activity against proliferation (cell survival rate) SU-DHL6
Experimental: as §1, §2

[5] = test system: K562; assay: Inhibition of tumor cell proliferation, CellTiter-Glo, K562; conditions: compound concentration 50 μM, 72 hours; for cell survival rate (%) at 50 µM: Homo sapiens, K562, read-out: Inhibitory activity against proliferation (cell survival rate) K562
Experimental: as §1, §2

[6] = test system: RPMI-8226; assay: Inhibition of tumor cell proliferation, CellTiter-Glo, RPMI-8226; conditions: compound concentration 50 μM, 72 hours; for cell survival rate (% of control) at 50 µM: Homo sapiens, RPMI-8226, read-out: Inhibitory activity against proliferation (cell survival rate) RPMI-8226
Experimental: as §1, §2

O=C(/C=C\CN1CCN(CCNC=C2C(=O)CC(c3ccccc3)CC2=O)CC1)Nc1cccc2c1CN(C1CCC(=O)NC1=O)C2=O (stereo not drawn) [Compound 93]
Inhibitory activity against proliferation (cell survival rate) BxPC-3 [1]: + (60≤survival rate (%)<90)
Inhibitory activity against proliferation (cell survival rate) A549 [2]: ++ (30<survival rate (%)≤60)
Inhibitory activity against proliferation (cell survival rate) MDA-MB-453 [3]: ++ (30<survival rate (%)≤60)
Inhibitory activity against proliferation (cell survival rate) SU-DHL6 [4]: +++ (survival rate (%)≤30)
Inhibitory activity against proliferation (cell survival rate) K562 [5]: ++ (30<survival rate (%)≤60)
Inhibitory activity against proliferation (cell survival rate) RPMI-8226 [6]: +++ (survival rate (%)≤30)

O=C1CCC(N2C(=O)c3cccc(NC(=O)CCC(=O)OCCN4CCN(CCNC=C5C(=O)CC(c6ccccc6)CC5=O)CC4)c3C2=O)C(=O)N1 (stereo not drawn) [Compound 57]
Inhibitory activity against proliferation (cell survival rate) BxPC-3 [1]: + (60≤survival rate (%)<90)
Inhibitory activity against proliferation (cell survival rate) A549 [2]: + (60≤survival rate (%)<90)
Inhibitory activity against proliferation (cell survival rate) MDA-MB-453 [3]: + (60≤survival rate (%)<90)
Inhibitory activity against proliferation (cell survival rate) SU-DHL6 [4]: +++ (survival rate (%)≤30)
Inhibitory activity against proliferation (cell survival rate) K562 [5]: + (60≤survival rate (%)<90)
Inhibitory activity against proliferation (cell survival rate) RPMI-8226 [6]: + (60≤survival rate (%)<90)

O=C1CCC(N2C(=O)c3cccc(OCCOCCOCCOCCN4CCN(CCNC=C5C(=O)CC(c6ccccc6)CC5=O)CC4)c3C2=O)C(=O)N1 (stereo not drawn) [Compound 125]
Inhibitory activity against proliferation (cell survival rate) BxPC-3 [1]: ++ (30<survival rate (%)≤60)
Inhibitory activity against proliferation (cell survival rate) A549 [2]: + (60≤survival rate (%)<90)
Inhibitory activity against proliferation (cell survival rate) MDA-MB-453 [3]: +++ (survival rate (%)≤30)
Inhibitory activity against proliferation (cell survival rate) SU-DHL6 [4]: +++ (survival rate (%)≤30)
Inhibitory activity against proliferation (cell survival rate) K562 [5]: + (60≤survival rate (%)<90)
Inhibitory activity against proliferation (cell survival rate) RPMI-8226 [6]: +++ (survival rate (%)≤30)

O=C1CCC(N2Cc3c(N/C=C4\C(=O)CC(c5ccccc5)NC4=O)cccc3C2=O)C(=O)N1 (stereo not drawn) [Compound 126]
cell survival rate (%) at 50 µM [1]: 30 to 60%
cell survival rate (% of control) at 50 µM [2]: 60 to 90%
cell survival rate (%) at 50 µM [3]: 60 to 90%
cell survival rate (% of control) at 50 µM [4]: 60 to 90%
cell survival rate (%) at 50 µM [5]: 60 to 90%
cell survival rate (% of control) at 50 µM [6]: ≤ 30%

O=C1CCC(N2C(=O)c3cccc(NC(=O)c4cnc(NC=C5C(=O)CC(c6ccccc6)CC5=O)s4)c3C2=O)C(=O)N1 (stereo not drawn) [Compound 63]
Inhibitory activity against proliferation (cell survival rate) BxPC-3 [1]: + (60≤survival rate (%)<90)
Inhibitory activity against proliferation (cell survival rate) A549 [2]: + (60≤survival rate (%)<90)
Inhibitory activity against proliferation (cell survival rate) MDA-MB-453 [3]: + (60≤survival rate (%)<90)
Inhibitory activity against proliferation (cell survival rate) SU-DHL6 [4]: ++ (30<survival rate (%)≤60)
Inhibitory activity against proliferation (cell survival rate) K562 [5]: +++ (survival rate (%)≤30)
Inhibitory activity against proliferation (cell survival rate) RPMI-8226 [6]: ++ (30<survival rate (%)≤60)

O=C1CCC(N2Cc3c(NC(=O)OCCOCCN4CCN(CCNC=C5C(=O)CC(c6ccccc6)CC5=O)CC4)cccc3C2=O)C(=O)N1 (stereo not drawn) [Compound 87]
Inhibitory activity against proliferation (cell survival rate) BxPC-3 [1]: + (60≤survival rate (%)<90)
Inhibitory activity against proliferation (cell survival rate) A549 [2]: ++ (30<survival rate (%)≤60)
Inhibitory activity against proliferation (cell survival rate) MDA-MB-453 [3]: +++ (survival rate (%)≤30)
Inhibitory activity against proliferation (cell survival rate) SU-DHL6 [4]: +++ (survival rate (%)≤30)
Inhibitory activity against proliferation (cell survival rate) K562 [5]: ++ (30<survival rate (%)≤60)
Inhibitory activity against proliferation (cell survival rate) RPMI-8226 [6]: +++ (survival rate (%)≤30)

O=C1CCC(N2Cc3c(NC=C4C(=O)CC(c5ccccc5C(F)(F)F)CC4=O)cccc3C2=O)C(=O)N1 (stereo not drawn) [Compound 23]
Inhibitory activity against proliferation (cell survival rate) BxPC-3 [1]: ++ (30<survival rate (%)≤60)
Inhibitory activity against proliferation (cell survival rate) A549 [2]: +++ (survival rate (%)≤30)
Inhibitory activity against proliferation (cell survival rate) MDA-MB-453 [3]: ++ (30<survival rate (%)≤60)
Inhibitory activity against proliferation (cell survival rate) SU-DHL6 [4]: +++ (survival rate (%)≤30)
Inhibitory activity against proliferation (cell survival rate) K562 [5]: ++ (30<survival rate (%)≤60)
Inhibitory activity against proliferation (cell survival rate) RPMI-8226 [6]: +++ (survival rate (%)≤30)

O=C1CCC(N2Cc3c(N/C=C4\C(=O)CC(Cc5ccccc5)C4=O)cccc3C2=O)C(=O)N1 (stereo not drawn) [Compound 121]
cell survival rate (%) at 50 µM [1]: 60 to 90%
cell survival rate (% of control) at 50 µM [2]: 60 to 90%
cell survival rate (%) at 50 µM [3]: 30 to 60%
cell survival rate (% of control) at 50 µM [4]: ≤ 30%
cell survival rate (%) at 50 µM [5]: 30 to 60%
cell survival rate (% of control) at 50 µM [6]: ≤ 30%

O=C1CCC(N2C(=O)c3cccc(NC(=O)OCOC(=O)/C=C/C(=O)N4CCN(CCNC=C5C(=O)CC(c6ccccc6)CC5=O)CC4)c3C2=O)C(=O)N1 (stereo not drawn) [Compound 86]
Inhibitory activity against proliferation (cell survival rate) BxPC-3 [1]: ++ (30<survival rate (%)≤60)
Inhibitory activity against proliferation (cell survival rate) A549 [2]: +++ (survival rate (%)≤30)
Inhibitory activity against proliferation (cell survival rate) MDA-MB-453 [3]: +++ (survival rate (%)≤30)
Inhibitory activity against proliferation (cell survival rate) SU-DHL6 [4]: + (60≤survival rate (%)<90)
Inhibitory activity against proliferation (cell survival rate) K562 [5]: +++ (survival rate (%)≤30)
Inhibitory activity against proliferation (cell survival rate) RPMI-8226 [6]: + (60≤survival rate (%)<90)

O=C1CCC(N2Cc3c(NC=C4C(=O)CC(COc5ccccc5)CC4=O)cccc3C2=O)C(=O)N1 (stereo not drawn) [Compound 118]
Inhibitory activity against proliferation (cell survival rate) BxPC-3 [1]: + (60≤survival rate (%)<90)
Inhibitory activity against proliferation (cell survival rate) A549 [2]: + (60≤survival rate (%)<90)
Inhibitory activity against proliferation (cell survival rate) MDA-MB-453 [3]: + (60≤survival rate (%)<90)
Inhibitory activity against proliferation (cell survival rate) SU-DHL6 [4]: + (60≤survival rate (%)<90)
Inhibitory activity against proliferation (cell survival rate) K562 [5]: ++ (30<survival rate (%)≤60)
Inhibitory activity against proliferation (cell survival rate) RPMI-8226 [6]: + (60≤survival rate (%)<90)

O=C1CCC(N2Cc3c(NC(=O)OCCN4CCN(CCNC=C5C(=O)CC(c6ccccc6)CC5=O)CC4)cccc3C2=O)C(=O)N1 (stereo not drawn) [Compound 79]
Inhibitory activity against proliferation (cell survival rate) BxPC-3 [1]: ++ (30<survival rate (%)≤60)
Inhibitory activity against proliferation (cell survival rate) A549 [2]: + (60≤survival rate (%)<90)
Inhibitory activity against proliferation (cell survival rate) MDA-MB-453 [3]: ++ (30<survival rate (%)≤60)
Inhibitory activity against proliferation (cell survival rate) SU-DHL6 [4]: + (60≤survival rate (%)<90)
Inhibitory activity against proliferation (cell survival rate) K562 [5]: + (60≤survival rate (%)<90)
Inhibitory activity against proliferation (cell survival rate) RPMI-8226 [6]: +++ (survival rate (%)≤30)

O=C1CCC(N2Cc3c(NC(=O)CCC(=O)N4CCN(CCNC=C5C(=O)CC(c6ccccc6)CC5=O)CC4)cccc3C2=O)C(=O)N1 (stereo not drawn) [Compound 91]
Inhibitory activity against proliferation (cell survival rate) BxPC-3 [1]: + (60≤survival rate (%)<90)
Inhibitory activity against proliferation (cell survival rate) A549 [2]: ++ (30<survival rate (%)≤60)
Inhibitory activity against proliferation (cell survival rate) MDA-MB-453 [3]: ++ (30<survival rate (%)≤60)
Inhibitory activity against proliferation (cell survival rate) SU-DHL6 [4]: ++ (30<survival rate (%)≤60)
Inhibitory activity against proliferation (cell survival rate) K562 [5]: ++ (30<survival rate (%)≤60)
Inhibitory activity against proliferation (cell survival rate) RPMI-8226 [6]: ++ (30<survival rate (%)≤60)

O=C1CCC(N2Cc3c(NC=C4C(=O)CC(c5ccc(OC(F)(F)F)cc5)CC4=O)cccc3C2=O)C(=O)N1 (stereo not drawn) [Compound 22]
Inhibitory activity against proliferation (cell survival rate) BxPC-3 [1]: ++ (30<survival rate (%)≤60)
Inhibitory activity against proliferation (cell survival rate) A549 [2]: + (60≤survival rate (%)<90)
Inhibitory activity against proliferation (cell survival rate) MDA-MB-453 [3]: ++ (30<survival rate (%)≤60)
Inhibitory activity against proliferation (cell survival rate) SU-DHL6 [4]: + (60≤survival rate (%)<90)
Inhibitory activity against proliferation (cell survival rate) K562 [5]: + (60≤survival rate (%)<90)
Inhibitory activity against proliferation (cell survival rate) RPMI-8226 [6]: + (60≤survival rate (%)<90)

O=C1CCC(N2C(=O)c3cccc(OCCN4CCN(CCNC=C5C(=O)CC(c6ccccc6)CC5=O)CC4)c3C2=O)C(=O)N1 (stereo not drawn) [Compound 106]
Inhibitory activity against proliferation (cell survival rate) BxPC-3 [1]: ++ (30<survival rate (%)≤60)
Inhibitory activity against proliferation (cell survival rate) A549 [2]: +++ (survival rate (%)≤30)
Inhibitory activity against proliferation (cell survival rate) MDA-MB-453 [3]: ++ (30<survival rate (%)≤60)
Inhibitory activity against proliferation (cell survival rate) SU-DHL6 [4]: + (60≤survival rate (%)<90)
Inhibitory activity against proliferation (cell survival rate) K562 [5]: + (60≤survival rate (%)<90)
Inhibitory activity against proliferation (cell survival rate) RPMI-8226 [6]: + (60≤survival rate (%)<90)

O=C1CCC(N2Cc3c(NC=C4C(=O)CC(c5ccccc5)C(F)C4=O)cccc3C2=O)C(=O)N1 (stereo not drawn) [Compound 28]
cell survival rate (%) at 50 µM [1]: 30 to 60%
cell survival rate (% of control) at 50 µM [2]: ≤ 30%
cell survival rate (%) at 50 µM [3]: ≤ 30%
cell survival rate (% of control) at 50 µM [4]: ≤ 30%
cell survival rate (%) at 50 µM [5]: ≤ 30%
cell survival rate (% of control) at 50 µM [6]: ≤ 30%

O=C1CCC(N2Cc3c(NC(=O)OCc4ccc(NC=C5C(=O)CC(c6ccccc6)CC5=O)nc4)cccc3C2=O)C(=O)N1 (stereo not drawn) [Compound 82]
cell survival rate (%) at 50 µM [1]: 60 to 90%
cell survival rate (% of control) at 50 µM [2]: ≤ 30%
cell survival rate (%) at 50 µM [3]: 30 to 60%
cell survival rate (% of control) at 50 µM [4]: ≤ 30%
cell survival rate (%) at 50 µM [5]: 60 to 90%
cell survival rate (% of control) at 50 µM [6]: 60 to 90%
